Assay results as given in patent US20250041571A1, “DRUG COATED MEDICAL DEVICES” (Vanderbilt University, priority 2023, published 2025).
Entries after “also recorded” stand apart in the source; their conditions may differ.

Legend:
[1] = Balloon loading and release quantification (3 min PBS soak, DMSO strip, fluorescence); type: physicochemical
Description: Balloon loading and release quantification: Angioplasty balloons (2.5 mm×20 mm) were coated with PPAA and MK2i-568 and then soaked in PBS with calcium and magnesium for 3 minutes to measure balloon release. The balloons were then soaked again in DMSO under sonication for 3 minutes to remove any remaining MK2i layers. The fluorescence of the PBS and DMSO solutions was measured on a TECAN Infinite M1000 Pro plate reader and compared to a standard curve of MK2i-568 in PBS and DMSO, respectively.
Balloon Loading and Release: Balloon release and total loading was quantified for different lactosucrose (LS) coating conditions. […] The fluorescence of these two solutions was then measured and used to quantify MK2i concentration (FIG. 5B and FIG. 5C).
Increasing balloon loading and release: To increase the amount of MK2i loaded onto and released from the balloons, two strategies were compared. […] Loading and release were measured as before—3 min wash in PBS followed by sonication in DMSO. The solution fluorescence was measured to determine loading and release.
Balloon loading and release quantification: Angioplasty balloons (2.5 mm×20 mm, Maverick OTW, Boston Scientific) were coated with PPAA and MK2i-568 and then soaked in PBS with calcium and magnesium for 3 minutes to measure balloon release. […]

ex vivo rat aortas [2] = test: MK2i transfer from coated balloons to ex vivo rat aorta (confocal fluorescence, tissue lysate fluorescence); type: in vitro ADME
Description: Aorta treatment: Harvested aortas were damaged with an angioplasty balloon prior to treatment (3×, 15 seconds each, 25% overstretch). Coated balloons were then inserted into the aorta and pressurized for 3 minutes in DMEM (+HEPES, +L-glutamine, +3% FBS, +1% Antibiotic/Antimycotic), with deflation and reinflation at each minute mark to allow for maximum release and tissue transfer. After 3 minutes, the balloon was deflated and removed. The treated artery was then washed briefly with DMEM to remove excess MK2i and then processed for further experimentation or data collection. […]
Delivery visualization and quantification: Immediately after aorta treatment, samples were placed into OCT and frozen for cryosectioning. […] Then, total intensity of MK2i-568 within the arterial wall was calculated by subtracting the intensity of the inside segment from the intensity of the total segment. […]
MK2i Delivery and Retention Quantification: Tissue lysates prepped for western blotting were measured for presence of fluorescently labeled MK2i to quantify tissue delivery and retention. Tissue lysate fluorescence was measured on a TECAN Infinite M1000 Pro plate reader and compared to a standard curve of fluorescent MK2i to calculate tissue MK2i concentration. […]

[3] = system: cells of ex vivo rat aortas (isolated SMCs); test: Cellular uptake of fluorescent MK2i in treated rat aortas by flow cytometry; type: cell-based; settings: flow cytometry 1 hour after treatment
Description: Flow Cytometry: After aorta treatment, samples were incubated in DMEM (+HEPES, +L-glutamine, +3% FBS, +1% Antibiotic/Antimycotic) for 1 hour to allow for cell uptake. The aortas were subsequently transferred to 500 μL of cold PBS+1% FBS and cut with scissors into small (˜1 mm) sized pieces. Digestion media in DMEM was then added to the PBS/tissue tube (500 μL) to achieve a final enzyme concentration of 0.7 mg/mL liberase, 4 mg/mL collagenase, and 0.2 mg/mL DNase and the tubes were placed in a 37° C. incubator on a shaker for ˜90 minutes or until digestion was apparent. After incubation, the samples were filtered through a 70 μm cell strainer and centrifuged at 500 g for 8 minutes. […] Cells were read for fluorescence on a Guava easyCyte HT and the resulting data was processed in FlowJo.
MK2i tissue transfer and cell uptake: Coated balloons (6 layers, 100 μM MK2i, 10 μM PPAA) were inflated in ex vivo rat aortas for 3 minutes and samples were cryosectioned to visualize fluorescent MK2i delivery (FIG. 9A, FIG. 9B, and FIG. 9C). ROIs were drawn around the vessel wall and total MK2i fluorescence was normalized to vessel wall cross sectional area. […] Cellular uptake was also measured with flow cytometry, quantifying cellular association of fluorescent MK2i within the treated tissue. […]

ex vivo rat aortas [4] = test: Immunofluorescence of balloon damaged rat aortas after 7 d in flow loop bioreactor; type: cell-based; settings: 7 d after balloon injury

Row | MK2i release from balloon ([1]; 3 minutes in PBS) | MK2i loading (comparison in words) ([1]; between coating conditions) | Compound | MK2i transfer to the tissue (fluorescence in vessel wall) (ex vivo rat aortas [2]; immediately after 3 min balloon inflation) | depth of MK2i delivery into the vessel wall (intensity profile) (ex vivo rat aortas [2]; immediately after balloon inflation) | cellular / intracellular uptake of MK2i [3] | MYH expression (ex vivo rat aortas [4]) | SM22 expression (ex vivo rat aortas [4])
1 | did not yield any differences | did not yield any differences | OC[C@H]1O[C@@H](O[C@H]2[C@H](O)[C@@H](O)[C@@H](O[C@]3(CO)O[C@H](CO)[C@@H](O)[C@@H]3O)O[C@@H]2CO)[C@H](O)[C@@H](O)[C@H]1O [LS, lactosucrose] | benefited; also recorded: increased MK2i transfer to the tissue | modest effect on increasing the depth of delivery | benefited; also recorded: significantly increased the intracellular uptake |  | 
2 |  |  | MAPKAP Kinase II inhibitory peptide [MK2i] |  |  |  | preserving expression | preserving expression
